Measurements reported in BindingDB's records for doi:10.1016/j.bmcl.2011.12.117 (Astrazeneca, 2012).

Assay: Antagonist activity at CCR5 in allo T cells assessed as inhibition of MIP-1beta-induced chemotaxis

IC50: 0.69 nM
Structure (SMILES): CCN(C(=O)Cc1ccc(S(C)(=O)=O)cc1)C1CCN(CC[C@@H](c2cc(F)cc(F)c2)C2CCN(S(C)(=O)=O)CC2)CC1
